Measured values: PMC12272249, “Engineering high-efficiency matriptase substrates using E. coli display for applications in prodrug activation” (Cell Reports Methods, 2025)
“And” between values parts separate entries of the source, which are not always exact repeats. Equal values may be shown once. Read-outs that look alike come from different tables or passages of the source.

What was measured:
[1] = target: urokinase-type plasminogen activator (uPA) (Homo sapiens, UniProt P00749); assay: FRET substrate stability against uPA; type: in vitro ADME; conditions: 30 μM Abz/Dnp peptide, 10 nM uPA, appropriate buffer, 37°C, 100 min (6,000 s), fluorescence, three replicates
Procedure: (§1) (cysteine protease), urokinase plasminogen[36] (uPA; serine protease), and MMP-2[37] (matrix metalloprotease), respectively.
(§2) Initial velocity (V0) was calculated from early linear slopes. […] Fluorescence was recorded for 6000 s.

[2] = target: T1, matriptase (Homo sapiens, UniProt Q9Y5Y6); assay: Cleavage of soluble substrates in affibody-ABD format, SDS-PAGE; type: biochemical; conditions: 37°C; for cleavage: affibody-ABD fusion 50 μg/mL in PBS, SDS-PAGE densitometry (ImageJ)
T1 construct: purchased R&D Systems (Bio-Techne) 3946-SEB
T1 sequence (Q9Y5Y6 615-855 limits assumed): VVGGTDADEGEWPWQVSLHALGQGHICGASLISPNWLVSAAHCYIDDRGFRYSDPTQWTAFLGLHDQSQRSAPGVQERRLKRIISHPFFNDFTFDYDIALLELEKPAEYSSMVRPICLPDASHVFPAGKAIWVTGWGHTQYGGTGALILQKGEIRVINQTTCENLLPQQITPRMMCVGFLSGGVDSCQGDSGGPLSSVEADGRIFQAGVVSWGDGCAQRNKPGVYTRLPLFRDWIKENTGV
Procedure: Affibody-ABD substrates (50 μg/mL in PBS) were treated with 1, 10, or 50 nM matriptase at 37°C for 10, 30, or 60 min. Reactions were quenched by adding SDS loading buffer (31.2 mM Tris-HCl, pH 6.8, 1% SDS, 12.5% glycerol, 0.01% bromophenol blue, 5 mM TCEP) and heating at 90°C for 10 min. Samples were analyzed by SDS-PAGE as above. High-resolution gel images (600 dpi) were analyzed using ImageJ (v1.54i). Band intensities were quantified to assess the fraction of cleaved vs. intact substrate. Data were processed in Microsoft Excel and visualized with GraphPad Prism 10.

[3] = target: TEV protease (Tobacco etch virus, UniProt P04517); assay: E. coli display cleavage reporter assay, flow cytometry, TEV protease treatment; conditions: E. coli-displayed substrate, 100 nM TEV, 30 min, 30°C, n = 3
[4] = target: T1, matriptase; assay: E. coli display cleavage reporter assay, flow cytometry, matriptase treatment; type: biochemical; conditions: for cleavage reporter signal of matriptase-treated compared to untreated cells / time to complete cleavage: E. coli-displayed substrate; for cleavage reporter signal of matriptase-treated compared to untreated cells: 100 nM matriptase, 30 min, 37°C, n = 3; for time to complete cleavage: flow cytometry; for relative cleavage efficiency group (high, medium, low): E. coli-displayed substrate, 1, 10, 25 and 50 nM matriptase over 90 min
[5] = target: T2, legumain (Homo sapiens, UniProt Q99538); assay: FRET substrate stability against legumain; type: in vitro ADME; conditions: 30 μM Abz/Dnp peptide, 10 nM legumain, appropriate buffer, 37°C, 100 min (6,000 s), fluorescence, three replicates
T2 construct: purchased R&D Systems (Bio-Techne) 2199-CY
T2 sequence (Q99538 18-433): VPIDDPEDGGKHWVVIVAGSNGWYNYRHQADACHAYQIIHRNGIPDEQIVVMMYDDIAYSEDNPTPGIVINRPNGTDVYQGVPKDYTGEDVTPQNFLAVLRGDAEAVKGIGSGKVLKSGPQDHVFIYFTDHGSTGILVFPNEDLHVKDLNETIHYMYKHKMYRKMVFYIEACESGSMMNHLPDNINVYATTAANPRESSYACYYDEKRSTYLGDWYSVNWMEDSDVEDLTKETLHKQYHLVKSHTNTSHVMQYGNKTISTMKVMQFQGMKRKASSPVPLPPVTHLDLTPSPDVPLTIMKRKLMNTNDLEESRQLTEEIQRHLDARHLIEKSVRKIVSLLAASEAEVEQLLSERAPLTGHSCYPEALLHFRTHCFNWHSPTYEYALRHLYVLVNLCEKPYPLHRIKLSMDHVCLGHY
Procedure: as §1, §2

[6] = target: T1, matriptase; assay: FRET-based kinetic analysis of matriptase cleavage; type: biochemical; conditions: 10 nM matriptase; for substrate cleavage by matriptase under identical conditions: 30 μM Abz/Dnp peptide, 37°C, 6,000 s, three replicates; for Vmax / Km / kcat/KM / kcat: Abz/Dnp-labelled 6-mer peptide, PBS, 37°C, n = 3; for Vmax / Km / kcat: Michaelis-Menten fit; for Vmax / kcat/KM / kcat: average ± SD; for kcat: serial dilution of substrate, 90 min, Ex 320/Em 420 nm
[7] = target: T1, matriptase; type: biochemical
[8] = target: T1, matriptase; conditions: previously reported value; cited from earlier work
Procedure: The most promising newly discovered substrates (MtpB9, MtpC5, and MtpC9), along with control substrates, were chemically synthesized and linked to 2-aminobenzoyl (Abz) and 2,4-dinitrophenyl (Dnp), a standard fluorophore/quencher combination used in FRET assays (Figure 4A). A serial dilution of the substrates (ranging from 120 to 1.75 μM) was used to monitor matriptase cleavage activity. The reaction was tracked by measuring the Abz fluorescence continuously for 90 min. Kinetic parameters were calculated by fitting the cleavage rates to substrate concentrations using the Michaelis-Menten equati ...

Chain of TEV protease (P04517 2038-2279): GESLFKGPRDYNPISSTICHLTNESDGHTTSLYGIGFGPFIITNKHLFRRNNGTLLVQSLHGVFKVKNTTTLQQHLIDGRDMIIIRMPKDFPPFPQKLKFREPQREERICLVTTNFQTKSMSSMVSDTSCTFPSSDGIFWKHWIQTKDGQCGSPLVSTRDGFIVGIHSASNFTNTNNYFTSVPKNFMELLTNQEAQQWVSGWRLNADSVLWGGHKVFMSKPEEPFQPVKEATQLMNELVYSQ

| Substance | substrate cleavage by uPA [1] | substrate cleavage by legumain [5] | substrate cleavage by matriptase under identical conditions [6] | Vmax [6] | Km [6] | kcat/KM [6] | kcat [6] | time to complete cleavage ([4]; 10 nM matriptase) | time to complete cleavage ([4]; 25 nM matriptase) | relative cleavage efficiency group (high, medium, low) [4] | time to complete cleavage [7] | other results |
| --- | --- | --- | --- | --- | --- | --- | --- | --- | --- | --- | --- | --- |
| ENLYFQG [TEV-control, TEV protease substrate, non-cleavable control for matriptase, reference compound] | No detectable cleavage | No detectable cleavage | – | – | – | – | – | – | – | – | – | cleavage under any tested conditions ([2]; affibody-ABD fusion, 1, 10 or 50 nM matriptase, 10, 30 or 60 min, SDS-PAGE): no cleavage; cleavage reporter signal of TEV-treated compared to untreated cells [3]: significantly lower signals; cleavage reporter signal of matriptase-treated compared to untreated cells [4]: No significant difference |
| GAKSRR [MtpB9] | No detectable substrate cleavage | No detectable substrate cleavage | cleavage was observed | 0.04 ± 0.0007 µM/s | 18.7 µM | 2.3E+05 ± 3,948 M^−1 s^−1 | 4.4 ± 0.07 s⁻¹ | 60 min | ≤ 30 min | high | ≤ 30 min | – |
| HYKGRK [MtpC9] | No detectable substrate cleavage | No detectable substrate cleavage | cleavage was observed | 0.06 ± 0.0021 µM/s | 29.1 µM | 1.9E+05 ± 7,099 M^−1 s^−1 | 5.6 ± 0.21 s⁻¹ | 60 min | ≤ 30 min | high | ≤ 30 min | – |
| LKRLMR [MtpA6] | – | – | – | – | – | – | – | – | – | low | – | – |
| LSGRSDNH [Mtp-control, reference compound] | No detectable cleavage | No detectable cleavage | – | 0.02 ± 0.0057 µM/s | 191 µM | 1.28E+04 ± 2,969 M^−1 s^−1 and 1.3E+04 ± 2,969 M^−1 s^−1 | 2.5 ± 0.57 s⁻¹ | – | – | – | – | cleavage ([2]; 50 nM matriptase, 1 h): 96%; cleavage reporter signal of TEV-treated compared to untreated cells [3]: No significant difference; cleavage reporter signal of matriptase-treated compared to untreated cells [4]: significantly lower signals; kcat/KM in the previous study [8]: 2200 M⁻¹ s⁻¹ |
| MGRSFY [MtpB11] | – | – | – | – | – | – | – | – | – | medium | – | – |
| MKRKAR [MtpC10] | – | – | – | – | – | – | – | – | – | medium | – | – |
| PFKRQL [MtpC12] | – | – | – | – | – | – | – | – | – | low | – | – |
| VPRGRR [MtpC5] | No detectable substrate cleavage | No detectable substrate cleavage | cleavage was observed | 0.06 ± 0.0005 µM/s | 12.5 µM | 5.13E+05 ± 3,910 M^−1 s^−1 and 5.1E+05 ± 3,910 M^−1 s^−1 | 6.4 ± 0.05 s⁻¹ | 60 min | ≤ 30 min | high | ≤ 30 min | cleavage ([2]; 1 nM matriptase, 10 min, two replicates): approximately 86% |
